Measured values published in patent publication US20230174947A1, “METHODS AND COMPOSITIONS FOR IMPROVING ENDOTHELIAL CELL BARRIER” (United Therapeutics Corporation, priority 2021, published 2023).

Test system: HPAECs
Test: HPAEC proliferation, cell counts by Hoechst-stained nuclei (Celigo)
Type: cell-based, Human
Details: Forskolin 40 μM, FTY720-P 50 nM, Methylprednisolone 1 μM; MCDB131
Protocol: HPAECs were seeded at low initial confluency (3000-5000 cells/cm^2) to study their growth on Collagen type-I coated culture dishes. Barrier agonists were added at 0 hours (FIG. 10A) or at 48 hours (FIG. 10B) and were maintained through the remainder of culture. Barrier agonist compounds, when added to the culture medium (MCDB131), were added at the following concentrations: Forskolin (40 μM), FTY720-P (50 nM), Methylprednisolone (1 μM). Cell counts were measured through individual quantification of nuclei, stained with Hoechst dye and imaged on the Celigo Imaging Cytometer (Nexcelom Bioscience).

SMILES: CCCCCCCCc1ccc(CC[C@](N)(CO)COP(=O)(O)O)cc1 [FTY720P, fingolimod-phosphate]
- endothelial cell proliferation (summary statement of Example 6): no reduction in endothelial proliferation
